Source: publication PMC4805781 (International Journal for Parasitology: Drugs and Drug …, 2016)

How the values were obtained:
[1] = tested on: Synchronized P. falciparum Dd2 cultures; assay: Flow cytometric profiling of inhibition, YOYO-1 staining; type: cell-based, Plasmodium falciparum; conditions: Dd2, treated at 6 hpi ring stage, 5×EC50, sampled at 12 h intervals
[2] = tested on: P. falciparum HB3 infected cultures; assay: High content image-based assay of merozoite egress and invasion; type: cell-based, Plasmodium falciparum; conditions: HB3, treated at 42 hpi, 10 μM, 24 h
[3] = Microsomal stability; type: in vitro ADME; conditions: mouse, liver microsomes
[4] = Double-sink parallel artificial membrane permeability assay; type: in vitro ADME

C[C@@H]1CC[C@H]2[C@@H](C)C(=O)O[C@@H]3O[C@@]4(C)CC[C@@H]1[C@]32OO4 [artemisinin]
Effect on parasite maturation by flow cytometry (DNA content) [1]: maturation is blocked
Effect on merozoite egress and invasion [2]: did not block merozoite egress or invasion

C[C@]12CC[C@H]3[C@@H](CCC4=CC(=O)CC[C@@]43C)[C@@H]1CC[C@@H]2O [Testosterone]
remaining at 1 h [3]: 26.1%

CC(C)C[C@H](NC(=O)[C@H]1O[C@@H]1C(=O)O)C(=O)NCCCCN=C(N)N [E-64]
Effect on merozoite egress and invasion [2]: blocked egress

COCCc1ccc(OCC(O)CNC(C)C)cc1 (stereo not shown) [metoprolol]
Permeability pH 5.0 (−logPe) ([4]; pH 5.0): > 5.4 −logPe
Permeability pH 6.2 (−logPe) ([4]; pH 6.2): 4.4 −logPe
Permeability pH 7.4 (−logPe) ([4]; pH 7.4): 3.6 −logPe
